Source: patent publication US20100216661A1, “Diagnostic Assay” (priority 2007, published 2010)

These substances were tested on anti-RhD monoclonal antibody T10 (LHM76/55) (assay: Biopanning of phage-peptide libraries with anti-RhD T10). Settings: biopanning of phage-peptide libraries with anti-RhD monoclonal T10.
Format: binding, Human
Description: (§1) Three different phage libraries from New England Biolabs. (Ph.D. 7 and Ph.D. 12 displaying linear 7- and 12-mer peptides, respectively and Ph.D. C7C displaying 7-mer peptides constrained by a disulphide bridge at their termini) and a linear 15mer library (kindly provided by Prof. George P. Smith, University of Missouri) were used in biopanning experiments with 10 different monoclonal antibodies and a polyclonal preparation (Table 1).
(§2) For each target antibody/library combination, a separate well of a 96-well Immulon 4 flat-bottomed ELISA plate (Thermo Labsystems) was coated with 5 μg of antibody in 150 μl ELISA coating buffer (15 mM Na2CO3, 35 mM NaHCO3, pH9.6). Plates were sealed and incubated at 4° C. overnight. Unbound antibody was discarded and 350 μl of blocking buffer (0.1M NaHCO3/3% skimmed milk powder) was added to each well. Plates were sealed and incubated for 1 hour at 4° C. The blocking buffer was removed and the wells were washed six times with 300 μl TBS/0.1% Tween 20. Approximately 2×10^11 plaque forming units (pfu) in 100 μl TBS/0.1% Tween 20 were added to each well and the plates were incubated at room temperature for 1 hour. Wells were washed ten times with 300 μl TBS/0.1% Tween 20. Bound phage were eluted by incubation with 100 μl of 0.2M glycine-HCl/BSA, pH2.2 (1 mg/ml) for 10 minutes, then neutralised with 15 μl of 1M Tris-HCL (pH9.1). An aliquot of the Round 1 eluate was removed and titred. The remainder of the eluted phage were amplified by infection of E. coli ER2538 cells for 4.5 hours at 37° C. The cultures were centrifuged for 10 minutes at 10,000 rpm at 4° C. The supernatants were recovered, ⅙ volume PEG/NaCl (20% polyethylene glycol 8000; 2.5M NaCl) added, then incubated overnight at 4° C. The PEG-precipitated phage were centrifuged at 10,000 rpm for 15 minutes at 4° C. The supernatant was removed and the phage pellet resuspended in 200 μl TBS. Two further rounds of panning were undertaken and approximately 2×10^11 pfu of the Round 2 or Round 3 amplified eluates were used as input phage. Round 3 eluates were titrated but not amplified. Individual plaques were amplified and subjected to PCR amplification, prior to DNA sequence analysis. The specificity of peptide-antibody binding was subsequently determined using both phage ELISA and SPOTs techniques.
In the case of Rh0 43 (YYQRAPY), the “Panning Antibody (antibody that selected the phage-peptide in biopanning)” value is reported as “RhD T10”.
For RhD 41 (WYTKAPY), the “Panning Antibody (antibody that selected the phage-peptide in biopanning)” value was “RhD T10”.
RhD 42 (WYHKAPY) was tested, and the “Panning Antibody (antibody that selected the phage-peptide in biopanning)” value was “RhD T10”.
With RhD 44 (HWKHPWGAWDTL) the “Panning Antibody (antibody that selected the phage-peptide in biopanning)” value was “RhD T10”.
With RhD 45 (WHWQWTPWSIQP) the “Panning Antibody (antibody that selected the phage-peptide in biopanning)” value was “RhD T10”.
In the case of RhD 46 (WHKNWWPPSTPN), the “Panning Antibody (antibody that selected the phage-peptide in biopanning)” value is reported as “RhD T10”.
In the case of RhD 47 (SMSSMLLAAQTV), the “Panning Antibody (antibody that selected the phage-peptide in biopanning)” value is reported as “RhD T10”.
RhD 48 (QSHYRHISPAQV) was tested, and the “Panning Antibody (antibody that selected the phage-peptide in biopanning)” value was “RhD T10”.
For RhD 49 (SMSQPKSQVNAH), the “Panning Antibody (antibody that selected the phage-peptide in biopanning)” value was “RhD T10”.
In the case of RhD 50 (WHWTFYTPLEST), the “Panning Antibody (antibody that selected the phage-peptide in biopanning)” value is reported as “RhD T10”.
RhD 51 (ESLSTDTYAILL) was tested, and the “Panning Antibody (antibody that selected the phage-peptide in biopanning)” value was “RhD T10”.
RhD 52 (HSSWYIQHFPPL) was tested, and the “Panning Antibody (antibody that selected the phage-peptide in biopanning)” value was “RhD T10”.
With RhD 53 (STYLNGPTGVDL) the “Panning Antibody (antibody that selected the phage-peptide in biopanning)” value was “RhD T10”.
RhD 54 (QHKTSITGHLEP) was tested, and the “Panning Antibody (antibody that selected the phage-peptide in biopanning)” value was “RhD T10”.
In the case of RhD 55 (FHRWPTWPLPSP), the “Panning Antibody (antibody that selected the phage-peptide in biopanning)” value is reported as “RhD T10”.
In the case of RhD 56 (VPPWVSVRTGPG), the “Panning Antibody (antibody that selected the phage-peptide in biopanning)” value is reported as “RhD T10”.
In the case of RhD 57 (TLVYQPPWYRIA), the “Panning Antibody (antibody that selected the phage-peptide in biopanning)” value is reported as “RhD T10”.
In the case of RhD 58 (FHQRLWWPTHTP), the “Panning Antibody (antibody that selected the phage-peptide in biopanning)” value is reported as “RhD T10”.
In the case of RhD 59 (WHWRLYSANTP), the “Panning Antibody (antibody that selected the phage-peptide in biopanning)” value is reported as “RhD T10”.
RhD 60 (HAAFEPRGDVRHTLL) was tested, and the “Panning Antibody (antibody that selected the phage-peptide in biopanning)” value was “RhD T10”.
With RhD 61 (SIWDLPLQYRGFGTS) the “Panning Antibody (antibody that selected the phage-peptide in biopanning)” value was “RhD T10”.
RhD 62 (LWRLRGGSFPVISHG) was tested, and the “Panning Antibody (antibody that selected the phage-peptide in biopanning)” value was “RhD T10”.
In the case of RhD 63 (RNALHSLRTLSSSWV), the “Panning Antibody (antibody that selected the phage-peptide in biopanning)” value is reported as “RhD T10”.
In the case of RhD 64 (FHRHWWPPTLST), the “Panning Antibody (antibody that selected the phage-peptide in biopanning)” value is reported as “RhD T10”.
RhD 65 (RPHLLDWELNPV) was tested, and the “Panning Antibody (antibody that selected the phage-peptide in biopanning)” value was “RhD T10”.
With RhD 66 (FHWRWSTFPEYP) the “Panning Antibody (antibody that selected the phage-peptide in biopanning)” value was “RhD T10”.
With RhD 67 (VWAVSLPWYRYP) the “Panning Antibody (antibody that selected the phage-peptide in biopanning)” value was “RhD T10”.
For RhD 68 (LDTYWYREHFRR), the “Panning Antibody (antibody that selected the phage-peptide in biopanning)” value was “RhD T10”.
With RhD 69 (VHWRWWDQRVPM) the “Panning Antibody (antibody that selected the phage-peptide in biopanning)” value was “RhD T10”.
With RhD 70 (LPWYQLT) the “Panning Antibody (antibody that selected the phage-peptide in biopanning)” value was “RhD T10”.
With RhD 71 (VPWFRAP) the “Panning Antibody (antibody that selected the phage-peptide in biopanning)” value was “RhD T10”.
For RhD 72 (WHPPQPS), the “Panning Antibody (antibody that selected the phage-peptide in biopanning)” value was “RhD T10”.
With RhD 73 (FHENWPS) the “Panning Antibody (antibody that selected the phage-peptide in biopanning)” value was “RhD T10”.
With RhD 74 (FWWQVPA) the “Panning Antibody (antibody that selected the phage-peptide in biopanning)” value was “RhD T10”.
With RhD 75 (TQWYQIA) the “Panning Antibody (antibody that selected the phage-peptide in biopanning)” value was “RhD T10”.
With RhD 76 (LPWFQLP) the “Panning Antibody (antibody that selected the phage-peptide in biopanning)” value was “RhD T10”.
With RhD 77 (TPLSKST) the “Panning Antibody (antibody that selected the phage-peptide in biopanning)” value was “RhD T10”.
For RhD 78 (LPWYATP), the “Panning Antibody (antibody that selected the phage-peptide in biopanning)” value was “RhD T10”.
In the case of RhD 79 (LPWYRH), the “Panning Antibody (antibody that selected the phage-peptide in biopanning)” value is reported as “RhD T10”.
With RhD 80 (IPWYKIT) the “Panning Antibody (antibody that selected the phage-peptide in biopanning)” value was “RhD T10”.

Same assay, conditions: phage-peptide libraries; three rounds of panning
For “RhD52: RhD peptide mimotope, Table 4 (HSSWYIQHFPPL)”, the “Selection by biopanning with anti-RhD monoclonal antibody T10” value was “selected”.

What follows are substances tested on anti-RhD monoclonal antibody T22 (LHM 169/80) (assay: Biopanning of phage-peptide libraries with anti-RhD T22). Settings: not given.
Format: binding, Human
Description: as §1, §2
Rh0 37 (WHWSSLSWPALP) was tested, and the “Panning Antibody (antibody that selected the phage-peptide in biopanning)” value was “RhD T22”.
RhD 16 (WGLWFSN) was tested, and the “Panning Antibody (antibody that selected the phage-peptide in biopanning)” value was “RhD T22”.
With RhD 17 (WGIWWNN) the “Panning Antibody (antibody that selected the phage-peptide in biopanning)” value was “RhD T22”.
RhD 18 (WGLWSTP) was tested, and the “Panning Antibody (antibody that selected the phage-peptide in biopanning)” value was “RhD T22”.
In the case of RhD 19 (WVHLQSP), the “Panning Antibody (antibody that selected the phage-peptide in biopanning)” value is reported as “RhD T22”.
For RhD 20 (WGLWWHT), the “Panning Antibody (antibody that selected the phage-peptide in biopanning)” value was “RhD T22”.
For RhD 21 (WGLWWTG), the “Panning Antibody (antibody that selected the phage-peptide in biopanning)” value was “RhD T22”.
RhD 22 (LLGLTET) was tested, and the “Panning Antibody (antibody that selected the phage-peptide in biopanning)” value was “RhD T22”.
With RhD 23 (DSRWLLP) the “Panning Antibody (antibody that selected the phage-peptide in biopanning)” value was “RhD T22”.
For RhD 24 (FHWWPRTQDPHR), the “Panning Antibody (antibody that selected the phage-peptide in biopanning)” value was “RhD T22”.
RhD 25 (FHWSWYTPSRPS) was tested, and the “Panning Antibody (antibody that selected the phage-peptide in biopanning)” value was “RhD T22”.
In the case of RhD 26 (HSSWWLALAKPT), the “Panning Antibody (antibody that selected the phage-peptide in biopanning)” value is reported as “RhD T22”.
In the case of RhD 27 (WHWYPRFSPPSH), the “Panning Antibody (antibody that selected the phage-peptide in biopanning)” value is reported as “RhD T22”.
In the case of RhD 28 (NDYSDSNQVPAS), the “Panning Antibody (antibody that selected the phage-peptide in biopanning)” value is reported as “RhD T22”.
RhD 29 (FHWPRSWVTWQS) was tested, and the “Panning Antibody (antibody that selected the phage-peptide in biopanning)” value was “RhD T22”.
For RhD 30 (HLSSRHLFVPLS), the “Panning Antibody (antibody that selected the phage-peptide in biopanning)” value was “RhD T22”.

What follows are substances tested on polyclonal anti-RhD preparation (Human Anti-D Ig) (assay: Biopanning of phage-peptide libraries with polyclonal anti-RhD). Settings: biopanning of phage-peptide libraries with polyclonal anti-RhD preparation.
Format: binding
Description: as §1, §2
With RhD 81 (FHSTWPWREAEG) the “Panning Antibody (antibody that selected the phage-peptide in biopanning)” value was “RhD”.
In the case of RhD 82 (FHANWPQSARDV), the “Panning Antibody (antibody that selected the phage-peptide in biopanning)” value is reported as “RhD”.
RhD 83 (FHSDWPGQTFTW) was tested, and the “Panning Antibody (antibody that selected the phage-peptide in biopanning)” value was “RhD”.
In the case of RhD 84 (FHENWSTRPTTR), the “Panning Antibody (antibody that selected the phage-peptide in biopanning)” value is reported as “RhD”.
With RhD 85 (FHSVYPWREAEG) the “Panning Antibody (antibody that selected the phage-peptide in biopanning)” value was “RhD”.
In the case of RhD 86 (FHSNWPSAYTAR), the “Panning Antibody (antibody that selected the phage-peptide in biopanning)” value is reported as “RhD”.
For RhD 87 (FHSNWPSLIRAR), the “Panning Antibody (antibody that selected the phage-peptide in biopanning)” value was “RhD”.
RhD 88 (AGYQIGMPNPLL) was tested, and the “Panning Antibody (antibody that selected the phage-peptide in biopanning)” value was “RhD”.
With RhD 89 (FHWRYPLPLPGQ) the “Panning Antibody (antibody that selected the phage-peptide in biopanning)” value was “RhD”.
RhD 90 (SPTSFRQVFGFY) was tested, and the “Panning Antibody (antibody that selected the phage-peptide in biopanning)” value was “RhD”.
In the case of RhD 91 (ALPELSSLPESAR), the “Panning Antibody (antibody that selected the phage-peptide in biopanning)” value is reported as “RhD”.
With RhD 92 (LHWWPTYGNNGM) the “Panning Antibody (antibody that selected the phage-peptide in biopanning)” value was “RhD”.
With RhD 93 (FHRPYYWPPTPL) the “Panning Antibody (antibody that selected the phage-peptide in biopanning)” value was “RhD”.
RhD 94 (FHWRLPYPLPSS) was tested, and the “Panning Antibody (antibody that selected the phage-peptide in biopanning)” value was “RhD”.
In the case of RhD 95 (IHWWVKSPPPGS), the “Panning Antibody (antibody that selected the phage-peptide in biopanning)” value is reported as “RhD”.
In the case of RhD 96 (SHWWTSILATPS), the “Panning Antibody (antibody that selected the phage-peptide in biopanning)” value is reported as “RhD”.
With RhD 97 (FHWHLQPQLWSY) the “Panning Antibody (antibody that selected the phage-peptide in biopanning)” value was “RhD”.
RhD 98 (LHREWIYPYLIS) was tested, and the “Panning Antibody (antibody that selected the phage-peptide in biopanning)” value was “RhD”.
For RhD 99 (GQKTHNPFHLHP), the “Panning Antibody (antibody that selected the phage-peptide in biopanning)” value was “RhD”.
With RhD 100 (ATWSHHLSSAGL) the “Panning Antibody (antibody that selected the phage-peptide in biopanning)” value was “RhD”.
In the case of RhD 101 (FHRHYYPWALIQ), the “Panning Antibody (antibody that selected the phage-peptide in biopanning)” value is reported as “RhD”.
RhD 102 (HSLKHTQMSYSS) was tested, and the “Panning Antibody (antibody that selected the phage-peptide in biopanning)” value was “RhD”.
RhD 103 (SVSVGMKPSPRP) was tested, and the “Panning Antibody (antibody that selected the phage-peptide in biopanning)” value was “RhD”.
RhD 104 (WPHQVHKHIYRQ) was tested, and the “Panning Antibody (antibody that selected the phage-peptide in biopanning)” value was “RhD”.
For RhD 105 (APPYPGPLPLSL), the “Panning Antibody (antibody that selected the phage-peptide in biopanning)” value was “RhD”.

Same assay, conditions: phage-peptide libraries; three rounds of panning
In the case of “RhD52: RhD peptide mimotope, Table 4 (HSSWYIQHFPPL)”, the “Selection by biopanning with polyclonal anti-RhD preparation” value is reported as “selected”.
